This note sets out measurements from patent US5866558A, “6-alkynyl steroids” (Regents of the University of Minnesota, priority 1997, dated 1999).

Data set [1] addresses T1, aromatase (Homo sapiens, UniProt P11511).
T1 sequence (P11511 1-503): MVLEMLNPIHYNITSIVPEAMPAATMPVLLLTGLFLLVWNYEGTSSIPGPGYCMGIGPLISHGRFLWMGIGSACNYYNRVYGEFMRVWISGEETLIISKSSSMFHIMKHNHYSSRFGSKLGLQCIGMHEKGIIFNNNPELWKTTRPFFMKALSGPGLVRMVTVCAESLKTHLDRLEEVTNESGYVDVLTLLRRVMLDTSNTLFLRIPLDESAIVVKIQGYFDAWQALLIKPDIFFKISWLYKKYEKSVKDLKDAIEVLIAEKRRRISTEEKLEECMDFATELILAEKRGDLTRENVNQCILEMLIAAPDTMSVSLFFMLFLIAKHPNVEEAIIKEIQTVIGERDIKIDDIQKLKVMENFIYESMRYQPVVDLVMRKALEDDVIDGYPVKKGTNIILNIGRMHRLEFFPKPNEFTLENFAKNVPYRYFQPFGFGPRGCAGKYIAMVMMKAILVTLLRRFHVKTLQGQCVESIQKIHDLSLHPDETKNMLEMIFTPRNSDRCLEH
Put plainly: biochemical. Type of data set: biochemical. Further details: Microsomes were obtained from human placentas after normal deliveries; from tissue; host or cells: human placenta, microsomes (washed twice, lyophilized). As to the method:
(§1) Test A. Enzyme Affinity Assay
(§2) Microsomes were obtained from human placentas after normal deliveries and prepared as described previously (Ryan, K. J. "Biological aromatization of steroids" J Biol. Chem. 1959, 234, 266-272). Following isolation of the microsomal pellets (washed twice), they were lyophilized and stored at -20° C.

The target of data set [2] is T1, aromatase. Type of data set: biochemical. Further details: Microsomes were obtained from human placentas after normal deliveries; from tissue; host or cells: human placenta, microsomes (washed twice, lyophilized).
Data set [3] has as its target T1, aromatase. Put plainly: Aromatase inhibition, overall results of tests A, B, and C. Details: Microsomes were obtained from human placentas after normal deliveries; from tissue; host or cells: human placenta, microsomes (washed twice, lyophilized). Type of data set: biochemical. As to the method: as §1, §2
Test B. Evaluation of Time-Dependent Inhibition
This determination requires measurements at initial velocities of enzyme reaction. The enzyme activity is determined following different preincubation times at various inhibitor concentrations when assayed at a substrate concentration of at least ten times the Km of androstenedione.

Data set [4] concerns the target T1, aromatase. The experiment in a line: Test C. Ki Determination / enzyme inactivation kinetics (Kitz and Wilson). The note with it: for T1/2 of enzyme inhibition / KI (inactivation): Table 2; for KI (inactivation): read-out: App. Ki(inact), apparent Ki for inactivation; for kinact: read-out: kcat.
The nature of data set [5]: Incubation with rat liver homogenates (prodrug dehydration). Type of data set: in vitro ADME. The note with it: gives compound (4). The text has this:
Accordingly, the invention includes a compound of formula III, wherein R to R^5 are defined as above; or a pharmaceutically acceptable salt thereof. The invention also includes a pharmaceutical composition comprising a compound of formula III; or a pharmaceutically acceptable salt thereof; and a pharmaceutically acceptable diluent or carrier. Because alcohols of formula III are capable of acting as prodrugs for compounds of formula I, it may be advantageous to use an alcohol of formula III in place of a corresponding compound of formula I in any of the methods disclosed herein. Accordingly, the invention includes a method for treating a disease in a human or other mammal in need thereof in which aromatase has been implicated and inhibition of its action is desired, comprising administering to said human or mammal an effective amount of a compound of formula III; or a pharmaceutically acceptable salt thereof. The invention also includes a method for inhibiting aromatase in a mammal comprising administering to said mammal an effective amount of a compound of formula III; or a pharmaceutically acceptable salt thereof.

Substrate in data set [6]: C[C@]12CCC(=O)C=C1CC[C@@H]1[C@@H]2CC[C@]2(C)C(=O)CC[C@@H]12
The experiment in a line: purified protein, by the assay type. The note with it: other: natural substrate.

Where “and” joins values, the source holds several entries; their conditions need not be identical. Identical values can stand only once. Like-named read-outs stand apart in the source and are kept apart here.

On to `C[C@]12C=CC(=O)C=C1C=C[C@@H]1[C@@H]2CC[C@]2(C)C(=O)CC[C@@H]12` [1,4,6-ATD, androst-1,4,6-triene-3,17-dione], for which the Ki in data set [1] (Table 1, apparent Ki, read-out: Ki (apparent)) was determined as 136 nM. The IC50 – broadly, the midpoint of a concentration-inhibition curve – in data set [1] (Table 1, human placental microsomes, read-out: IC50) stood at 890 nM. Moreover, the “Type of Inhibition” value in data set [2] (Table 1) is “Irreversible/Inactivation”.
In data set [1] (IC50), `C[C@]12CCC(=O)C(O)=C1CC[C@@H]1[C@@H]2CC[C@]2(C)C(=O)CC[C@@H]12` [4-Hydroxy AD, 4-hydroxyandrostenedione] returned an IC50 of 250 nM. Besides, in data set [1] (read-out: Ki (apparent)), the Ki came out at 40.8 nM. Moreover, the “Type of Inhibition” value in data set [2] was “Irreversible/Inactivation”.
For the molecule `C#CC[C@H]1C[C@@H]2[C@H](CC[C@]3(C)C(=O)CC[C@@H]23)[C@H]2CCC(=O)C=C12` [6α-Propargyl ED], in data set [1] (IC50), the midpoint of inhibition, the IC50, lay at 430 nM. Besides, the “Type of Inhibition” value in data set [2] was “Reversible”.
Take `C#CC[C@H]1C[C@@H]2[C@H](CC[C@]3(C)C(=O)CC[C@@H]23)[C@@]2(C)CCC(=O)C=C12` [6α-propynyl compound, 6α-(2-propynyl)androst-4-ene-3,17-dione]: the “enzyme affinity compared with other known inhibitors” value in data set [1] is “greater enzyme affinty than other known inhibitors”.
On to `C#CC[C@@H]1C[C@@H]2[C@H](CC[C@]3(C)C(=O)CC[C@@H]23)[C@@]2(C)CCC(=O)C=C12` [6β-Propargyl AD, 6β-Propargyl-4-androstene-3,17-dione], for which the Ki in data set [1] (Ki (apparent)) was 9.8 nM and 87.5 nM. Moreover, the “aromatase inhibitory properties, in words” value in data set [3] is reported as “superior to other known aromatase inhibitors”. In addition, in data set [4], the “T1/2 of enzyme inhibition” value amounted to 7.7 min, the KI (inactivation) was 46.8 nM and the kinact worked out at 0.0015 s⁻¹. In addition, the “irreversibility / mechanism of inhibition” value in data set [4] (test C) is “irreversibly bound to the enzyme”. For the same molecule, in data set [4] (vs androstenedione Km), the “affinity for the enzyme site relative to natural substrate androstenedione” value is “about five times greater”.
Molecule `C#CC[C@@H]1C[C@@H]2[C@H](CC[C@]3(C)C(=O)CC[C@@H]23)[C@H]2CCC(=O)C=C12` [6β-Propargyl ED, 6β-Propargyl-4-estrene-3,17-dione] came in with an IC50 in data set [1] (IC50) of 98 nM. Moreover, the Ki in data set [1] (Ki (apparent)) came to 43.5 nM. In data set [4], the “T1/2 of enzyme inhibition” value was 9.75 min, the KI (inactivation) was determined as 15.4 nM and the kinact worked out at 0.0012 s⁻¹. The “Type of Inhibition” value in data set [2] is listed as “Irreversible/Inactivation”.
Molecule `C#CC[C@]12CCC(=O)C=C1CC[C@@H]1[C@@H]2CC[C@]2(C)C(=O)CC[C@@H]12` [10β-Propargyl ED, 10-(2-propynyl)estr-4-ene-3,17-dione] had an IC50 in data set [1] (IC50) of 42 nM. Also, the Ki in data set [1] (Ki (apparent)) is 26.7 nM. Also, the “Type of Inhibition” value in data set [2] is on record as “Irreversible/Inactivation”.
`C#CC[C@@H]1C[C@H]2[C@@H]3CCC(=O)[C@@]3(C)CC[C@@H]2[C@@]2(C)CCC(=O)C[C@]12O` [compound (3)]: in data set [5], the “dehydration in the presence of rat liver homogenates” value is listed as “found to dehydrate in the presence of the homogenates to give compound (4)”.

B1: aromatase (Homo sapiens) (protein)
chain: MVLEMLNPIHYNITSIVPEAMPAATMPVLLLTGLFLLVWNYEGTSSIPGPGYCMGIGPLISHGRFLWMGIGSACNYYNRVYGEFMRVWISGEETLIISKSSSMFHIMKHNHYSSRFGSKLGLQCIGMHEKGIIFNNNPELWKTTRPFFMKALSGPGLVRMVTVCAESLKTHLDRLEEVTNESGYVDVLTLLRRVMLDTSNTLFLRIPLDESAIVVKIQGYFDAWQALLIKPDIFFKISWLYKKYEKSVKDLKDAIEVLIAEKRRRISTEEKLEECMDFATELILAEKRGDLTRENVNQCILEMLIAAPDTMSVSLFFMLFLIAKHPNVEEAIIKEIQTVIGERDIKIDDIQKLKVMENFIYESMRYQPVVDLVMRKALEDDVIDGYPVKKGTNIILNIGRMHRLEFFPKPNEFTLENFAKNVPYRYFQPFGFGPRGCAGKYIAMVMMKAILVTLLRRFHVKTLQGQCVESIQKIHDLSLHPDETKNMLEMIFTPRNSDRCLEH
For B1, in data set [6], the Km (as a rule, the substrate concentration at which the rate is half of its maximum) is 0.055 µM.
